The source of these data is ChEMBL document CHEMBL3132769, “Fragment growing to retain or alter the selectivity of anchored kinase hinge-binding fragments” (Medchemcomm, 2014).

As a reminder, the inhibition is the share of the control response that was lost under treatment.

Assay [1] concerns the target Mitogen-activated protein kinase 3 (Homo sapiens) (UniProt P27361). Put plainly: Inhibition of human full length ERK1 expressed in Escherichia coli cell assessed as substrate phosphorylation using fluorescence-labelled peptides as substrate at 8 uM after 90 mins by microfluidic peptide phosphorylation assay.
Assay [2] concerns the target T1, Testis-specific serine/threonine-protein kinase 2 (Homo sapiens) (UniProt Q96PF2).
T1 sequence (whole entry): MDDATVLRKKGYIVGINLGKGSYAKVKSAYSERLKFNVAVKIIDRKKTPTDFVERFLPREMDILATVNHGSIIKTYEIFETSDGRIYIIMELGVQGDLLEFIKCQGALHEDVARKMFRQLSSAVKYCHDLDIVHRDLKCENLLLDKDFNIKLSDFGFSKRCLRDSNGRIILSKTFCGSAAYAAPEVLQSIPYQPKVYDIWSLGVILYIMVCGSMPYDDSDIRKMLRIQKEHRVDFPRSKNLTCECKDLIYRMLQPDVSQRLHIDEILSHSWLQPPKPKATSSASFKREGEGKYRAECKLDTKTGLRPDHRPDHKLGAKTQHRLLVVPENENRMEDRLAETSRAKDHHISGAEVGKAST
Put plainly: Inhibition of human full length TSSK2 expressed in baculovirus assessed as substrate phosphorylation using fluorescence-labelled peptides as substrate at 8 uM after 90 mins by microfluidic peptide phosphorylation assay.

Assay [3] concerns the target Fibroblast growth factor receptor 4 (Homo sapiens) (UniProt P22455). Put plainly: Inhibition of human FGFR4 catalytic domain expressed in baculovirus assessed as substrate phosphorylation using fluorescence-labelled peptides as substrate at 420 uM after 90 mins by microfluidic peptide phosphorylation assay.
In assay [4] the target is Protein kinase C delta type (Homo sapiens) (UniProt Q05655). Kind of assay: Inhibition of human truncated PKC delta expressed in baculovirus assessed as substrate phosphorylation using fluorescence-labelled peptides as substrate at 420 uM after 90 mins by microfluidic peptide phosphorylation assay.
Assay [5] deals with Tyrosine-protein kinase BTK (Homo sapiens) (UniProt Q06187). Kind of assay: Inhibition of human full length BTK expressed in baculovirus assessed as substrate phosphorylation using fluorescence-labelled peptides as substrate at 0.06 uM after 90 mins by microfluidic peptide phosphorylation assay.
Assay [6] addresses Calcium/calmodulin-dependent protein kinase type II subunit gamma (Homo sapiens) (UniProt Q13555). Kind of assay: Inhibition of human CAMK2 gamma catalytic domain expressed in baculovirus assessed as substrate phosphorylation using fluorescence-labelled peptides as substrate at 0.2 uM after 90 mins by microfluidic peptide phosphorylation assay.
For assay [7], the target named is T2, Aurora kinase C (Homo sapiens) (UniProt Q9UQB9).
T2 sequence (whole entry): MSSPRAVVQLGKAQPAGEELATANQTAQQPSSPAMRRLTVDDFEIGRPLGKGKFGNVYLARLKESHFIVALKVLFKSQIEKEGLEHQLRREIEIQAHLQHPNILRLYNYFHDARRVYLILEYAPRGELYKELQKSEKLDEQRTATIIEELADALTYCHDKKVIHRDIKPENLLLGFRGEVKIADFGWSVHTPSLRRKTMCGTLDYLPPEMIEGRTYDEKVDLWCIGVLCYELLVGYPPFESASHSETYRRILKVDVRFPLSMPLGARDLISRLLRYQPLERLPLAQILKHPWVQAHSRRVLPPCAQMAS
Kind of assay: Inhibition of human full length AurC expressed in baculovirus assessed as substrate phosphorylation using fluorescence-labelled peptides as substrate at 9 uM after 90 mins by microfluidic peptide phosphorylation assay.

The target of assay [8] is Serine/threonine-protein kinase MARK1 (Homo sapiens) (UniProt Q9P0L2). Kind of assay: Inhibition of human full length MARK1 expressed in baculovirus assessed as substrate phosphorylation using fluorescence-labelled peptides as substrate at 70 uM after 90 mins by microfluidic peptide phosphorylation assay.
In assay [9] the target is MAP kinase-activated protein kinase 3 (Homo sapiens) (UniProt Q16644). Put plainly: Inhibition of human full length MAPKAPK3 expressed in Escherichia coli cell assessed as substrate phosphorylation using fluorescence-labelled peptides as substrate at 2 uM after 90 mins by microfluidic peptide phosphorylation assay.
The target in assay [10] is Mitogen-activated protein kinase kinase kinase kinase 4 (Homo sapiens) (UniProt O95819). Put plainly: Inhibition of human HGK catalytic domain expressed in baculovirus assessed as substrate phosphorylation using fluorescence-labelled peptides as substrate at 2 uM after 90 mins by microfluidic peptide phosphorylation assay.
For assay [11], the target named is T3, Aurora kinase A (Homo sapiens) (UniProt O14965).
T3 sequence (whole entry): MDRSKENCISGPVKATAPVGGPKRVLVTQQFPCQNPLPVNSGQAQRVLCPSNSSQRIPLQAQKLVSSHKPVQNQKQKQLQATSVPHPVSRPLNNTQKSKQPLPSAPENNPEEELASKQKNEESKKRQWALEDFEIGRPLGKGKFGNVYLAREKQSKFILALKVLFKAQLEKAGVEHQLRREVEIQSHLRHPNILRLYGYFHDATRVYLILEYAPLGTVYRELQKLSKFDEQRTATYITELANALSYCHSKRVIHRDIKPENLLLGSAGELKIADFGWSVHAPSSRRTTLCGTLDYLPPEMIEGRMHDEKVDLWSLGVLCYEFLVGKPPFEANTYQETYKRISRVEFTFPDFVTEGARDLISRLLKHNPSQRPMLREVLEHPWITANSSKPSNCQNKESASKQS
Put plainly: Inhibition of human full length AurA expressed in baculovirus assessed as substrate phosphorylation using fluorescence-labelled peptides as substrate at 95 uM after 90 mins by microfluidic peptide phosphorylation assay.

Assay [12] has as its target Cyclin-dependent kinase 2 (Homo sapiens) (UniProt P24941). Kind of assay: Inhibition of human full length CDK2 expressed in baculovirus assessed as substrate phosphorylation using fluorescence-labelled peptides as substrate at 95 uM after 90 mins by microfluidic peptide phosphorylation assay.
Assay [13] deals with Vascular endothelial growth factor receptor 2 (Homo sapiens) (UniProt P35968). Kind of assay: Inhibition of human KDR cytoplasmic domain expressed in baculovirus assessed as substrate phosphorylation using fluorescence-labelled peptides as substrate at 1000 uM after 90 mins by microfluidic peptide phosphorylation assay.
Assay [14] deals with Aurora kinase B (Homo sapiens) (UniProt Q96GD4). Kind of assay: Inhibition of human full length AurB expressed in baculovirus assessed as substrate phosphorylation using fluorescence-labelled peptides as substrate at […] after 90 mins by microfluidic peptide phosphorylation assay.

Mitogen-activated protein kinase kinase kinase kinase 4 (Homo sapiens), sequence (O95819 2-1239 limits assumed): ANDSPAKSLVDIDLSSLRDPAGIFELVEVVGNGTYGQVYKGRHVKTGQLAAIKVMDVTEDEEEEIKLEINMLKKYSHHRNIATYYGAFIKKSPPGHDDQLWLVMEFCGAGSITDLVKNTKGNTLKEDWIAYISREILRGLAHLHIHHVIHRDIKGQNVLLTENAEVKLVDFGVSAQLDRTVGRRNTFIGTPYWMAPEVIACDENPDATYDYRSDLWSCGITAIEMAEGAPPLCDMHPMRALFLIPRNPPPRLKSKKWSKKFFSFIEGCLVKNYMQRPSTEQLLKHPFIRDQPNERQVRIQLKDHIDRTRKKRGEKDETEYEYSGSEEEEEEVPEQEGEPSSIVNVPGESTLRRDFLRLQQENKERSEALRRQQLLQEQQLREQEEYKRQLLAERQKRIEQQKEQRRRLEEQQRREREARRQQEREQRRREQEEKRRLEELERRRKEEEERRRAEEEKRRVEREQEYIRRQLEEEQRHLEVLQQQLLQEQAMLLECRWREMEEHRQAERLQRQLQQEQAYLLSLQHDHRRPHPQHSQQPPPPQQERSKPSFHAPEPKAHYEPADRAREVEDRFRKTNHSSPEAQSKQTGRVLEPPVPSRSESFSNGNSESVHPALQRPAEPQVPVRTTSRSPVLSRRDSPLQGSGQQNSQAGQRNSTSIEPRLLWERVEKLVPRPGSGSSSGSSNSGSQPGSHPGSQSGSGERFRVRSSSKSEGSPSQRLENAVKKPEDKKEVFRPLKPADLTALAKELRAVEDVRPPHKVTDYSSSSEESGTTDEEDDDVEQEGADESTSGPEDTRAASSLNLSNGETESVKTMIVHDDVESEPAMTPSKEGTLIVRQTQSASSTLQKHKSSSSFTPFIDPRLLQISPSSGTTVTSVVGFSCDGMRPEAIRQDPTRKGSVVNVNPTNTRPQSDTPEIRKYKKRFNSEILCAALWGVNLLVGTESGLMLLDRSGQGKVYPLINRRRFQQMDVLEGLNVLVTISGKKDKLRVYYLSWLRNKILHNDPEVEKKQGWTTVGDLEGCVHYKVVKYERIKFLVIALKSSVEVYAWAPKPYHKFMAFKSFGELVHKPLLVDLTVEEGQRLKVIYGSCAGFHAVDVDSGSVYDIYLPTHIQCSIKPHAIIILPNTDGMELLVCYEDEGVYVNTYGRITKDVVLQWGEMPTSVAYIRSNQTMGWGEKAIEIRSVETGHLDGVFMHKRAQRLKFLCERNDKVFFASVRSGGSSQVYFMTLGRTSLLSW
Vascular endothelial growth factor receptor 2 (Homo sapiens), sequence (P35968 whole entry, the tested form may be a part): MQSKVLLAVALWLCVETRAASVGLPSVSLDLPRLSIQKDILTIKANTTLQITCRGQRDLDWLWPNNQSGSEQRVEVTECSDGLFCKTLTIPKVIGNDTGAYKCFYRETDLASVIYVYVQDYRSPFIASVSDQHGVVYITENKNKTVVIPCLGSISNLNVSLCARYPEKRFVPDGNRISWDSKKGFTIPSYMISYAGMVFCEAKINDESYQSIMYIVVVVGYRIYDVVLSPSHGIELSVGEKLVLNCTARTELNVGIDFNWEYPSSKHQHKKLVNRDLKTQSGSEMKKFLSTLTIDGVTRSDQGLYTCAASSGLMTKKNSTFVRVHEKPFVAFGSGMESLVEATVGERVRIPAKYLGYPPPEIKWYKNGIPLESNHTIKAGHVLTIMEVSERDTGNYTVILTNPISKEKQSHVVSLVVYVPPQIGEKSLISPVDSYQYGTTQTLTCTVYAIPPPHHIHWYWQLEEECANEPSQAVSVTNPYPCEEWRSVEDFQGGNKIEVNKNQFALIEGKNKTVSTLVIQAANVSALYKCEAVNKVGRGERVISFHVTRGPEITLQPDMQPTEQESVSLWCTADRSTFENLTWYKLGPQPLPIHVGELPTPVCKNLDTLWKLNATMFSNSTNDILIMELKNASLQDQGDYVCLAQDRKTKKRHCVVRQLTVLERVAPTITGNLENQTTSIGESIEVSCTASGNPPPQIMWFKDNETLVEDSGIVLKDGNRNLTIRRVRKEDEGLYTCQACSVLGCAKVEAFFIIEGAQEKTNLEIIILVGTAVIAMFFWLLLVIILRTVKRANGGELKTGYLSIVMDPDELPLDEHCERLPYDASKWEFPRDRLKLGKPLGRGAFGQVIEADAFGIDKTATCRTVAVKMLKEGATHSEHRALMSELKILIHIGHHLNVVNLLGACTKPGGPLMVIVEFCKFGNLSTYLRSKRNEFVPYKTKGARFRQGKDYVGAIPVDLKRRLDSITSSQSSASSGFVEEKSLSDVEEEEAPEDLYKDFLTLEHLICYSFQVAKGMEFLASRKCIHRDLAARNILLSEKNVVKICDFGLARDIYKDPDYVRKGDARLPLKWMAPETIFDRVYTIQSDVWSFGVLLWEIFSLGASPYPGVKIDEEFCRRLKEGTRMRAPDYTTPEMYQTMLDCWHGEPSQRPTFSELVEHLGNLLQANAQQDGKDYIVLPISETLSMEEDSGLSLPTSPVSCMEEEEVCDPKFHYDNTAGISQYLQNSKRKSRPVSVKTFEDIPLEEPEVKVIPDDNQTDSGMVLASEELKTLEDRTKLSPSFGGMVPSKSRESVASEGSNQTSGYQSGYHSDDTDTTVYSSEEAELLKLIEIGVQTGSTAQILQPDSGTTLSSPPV
Protein kinase C delta type (Homo sapiens), sequence (Q05655 whole entry, looked up, the tested form may be a part): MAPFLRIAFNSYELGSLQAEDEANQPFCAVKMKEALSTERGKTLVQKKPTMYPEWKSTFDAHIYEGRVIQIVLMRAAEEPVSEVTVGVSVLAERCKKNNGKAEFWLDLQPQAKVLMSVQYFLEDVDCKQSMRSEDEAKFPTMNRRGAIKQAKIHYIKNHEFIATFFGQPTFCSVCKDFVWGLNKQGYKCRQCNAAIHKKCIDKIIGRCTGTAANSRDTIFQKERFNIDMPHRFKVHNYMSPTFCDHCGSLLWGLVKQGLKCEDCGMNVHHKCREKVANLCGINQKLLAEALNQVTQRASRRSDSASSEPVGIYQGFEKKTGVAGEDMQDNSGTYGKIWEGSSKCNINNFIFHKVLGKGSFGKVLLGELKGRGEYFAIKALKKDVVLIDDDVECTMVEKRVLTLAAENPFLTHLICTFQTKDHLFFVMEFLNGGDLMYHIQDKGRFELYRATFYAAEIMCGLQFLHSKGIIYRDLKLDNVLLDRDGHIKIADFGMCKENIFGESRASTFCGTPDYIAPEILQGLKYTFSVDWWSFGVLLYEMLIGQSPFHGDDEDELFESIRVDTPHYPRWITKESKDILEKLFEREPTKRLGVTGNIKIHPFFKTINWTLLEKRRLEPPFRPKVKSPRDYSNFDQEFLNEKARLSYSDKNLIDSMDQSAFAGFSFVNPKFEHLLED
Mitogen-activated protein kinase 3 (Homo sapiens), sequence (P27361 whole entry): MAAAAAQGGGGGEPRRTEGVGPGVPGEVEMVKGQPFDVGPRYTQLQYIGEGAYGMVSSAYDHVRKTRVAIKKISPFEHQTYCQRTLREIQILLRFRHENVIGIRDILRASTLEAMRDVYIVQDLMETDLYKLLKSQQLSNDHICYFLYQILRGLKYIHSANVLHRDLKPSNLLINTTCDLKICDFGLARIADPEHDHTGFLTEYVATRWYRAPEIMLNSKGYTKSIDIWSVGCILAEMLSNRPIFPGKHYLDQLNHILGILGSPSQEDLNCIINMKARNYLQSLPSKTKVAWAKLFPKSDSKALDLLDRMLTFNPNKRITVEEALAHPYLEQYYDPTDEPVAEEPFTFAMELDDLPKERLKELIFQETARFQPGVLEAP
Serine/threonine-protein kinase MARK1 (Homo sapiens), sequence (Q9P0L2 whole entry, looked up): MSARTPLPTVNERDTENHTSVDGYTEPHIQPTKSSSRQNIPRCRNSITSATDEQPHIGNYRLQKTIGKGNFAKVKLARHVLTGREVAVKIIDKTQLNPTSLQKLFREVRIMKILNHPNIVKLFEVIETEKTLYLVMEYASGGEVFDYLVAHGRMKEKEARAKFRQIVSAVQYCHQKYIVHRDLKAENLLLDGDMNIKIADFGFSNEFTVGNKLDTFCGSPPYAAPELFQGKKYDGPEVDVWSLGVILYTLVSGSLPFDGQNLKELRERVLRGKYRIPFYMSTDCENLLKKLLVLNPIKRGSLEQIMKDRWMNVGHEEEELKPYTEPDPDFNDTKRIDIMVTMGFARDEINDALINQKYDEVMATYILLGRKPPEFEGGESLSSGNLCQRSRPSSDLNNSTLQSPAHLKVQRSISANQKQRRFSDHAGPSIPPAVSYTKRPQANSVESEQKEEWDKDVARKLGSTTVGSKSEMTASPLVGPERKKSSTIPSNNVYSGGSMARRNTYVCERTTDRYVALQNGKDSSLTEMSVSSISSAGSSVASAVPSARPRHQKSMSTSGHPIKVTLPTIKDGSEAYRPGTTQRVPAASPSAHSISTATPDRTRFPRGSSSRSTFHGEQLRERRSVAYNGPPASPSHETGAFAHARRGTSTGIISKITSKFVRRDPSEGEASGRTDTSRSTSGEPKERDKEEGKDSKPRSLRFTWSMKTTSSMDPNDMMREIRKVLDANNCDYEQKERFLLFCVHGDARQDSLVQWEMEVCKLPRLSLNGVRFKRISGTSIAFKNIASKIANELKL
Calcium/calmodulin-dependent protein kinase type II subunit gamma (Homo sapiens), sequence (Q13555 whole entry, the tested form may be a part): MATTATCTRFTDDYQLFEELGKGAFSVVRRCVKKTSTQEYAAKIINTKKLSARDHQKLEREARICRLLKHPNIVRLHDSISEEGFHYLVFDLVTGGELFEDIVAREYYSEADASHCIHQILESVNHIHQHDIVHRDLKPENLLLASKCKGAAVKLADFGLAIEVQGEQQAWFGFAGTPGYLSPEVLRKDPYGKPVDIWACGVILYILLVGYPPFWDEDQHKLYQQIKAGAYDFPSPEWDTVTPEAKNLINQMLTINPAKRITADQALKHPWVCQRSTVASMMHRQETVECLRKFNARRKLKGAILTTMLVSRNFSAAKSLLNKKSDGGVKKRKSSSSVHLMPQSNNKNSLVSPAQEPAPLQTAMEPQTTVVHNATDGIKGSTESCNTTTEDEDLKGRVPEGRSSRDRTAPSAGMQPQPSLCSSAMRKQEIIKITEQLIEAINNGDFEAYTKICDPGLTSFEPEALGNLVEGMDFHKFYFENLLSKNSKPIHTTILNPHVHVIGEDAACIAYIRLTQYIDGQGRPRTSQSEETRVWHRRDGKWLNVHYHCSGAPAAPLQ

In the case of `NCC1CCN(c2ncnc3[nH]ccc23)CC1`, the inhibition came out at 8.5% in assay [1] and 23.5% in [2].
In the case of `c1nc(N2CCOCC2)c2nc[nH]c2n1`, the results for the inhibition in [3] and in [4] were 75.5% and 78.5%, respectively.
As to `NC1(Cc2ccc(Cl)cc2)CCN(c2ncnc3[nH]ccc23)CC1`, in assay [5], the inhibition was found to be 0%.
Take `Clc1ccc(C2(c3ccc(-c4ncnc5[nH]cnc45)cc3)CCNCC2)cc1`: in assay [6], the inhibition was determined as 15%.
On to `NCC1CN(c2ncnc3[nH]c4cnccc4c23)CCO1` (centres undefined), for which the inhibition in assay [7] is 11.5%.
Regarding `CNCc1ccc(-c2ncnc3[nH]cnc23)cc1`, the inhibition in assay [8] came out at 52%.
As to `NC1CCN(c2ncnc3[nH]ccc23)CC1`, the inhibition in assay [9] came to 45.5%; in assay [10], 0%.
In the case of `NCCc1ccc(-c2ncnc3[nH]cnc23)cc1`, the inhibition in assay [11] stood at 85%; in assay [12] it was 39.5%.
With `c1cnc2[nH]ccc2c1`, the inhibition in assay [13] was determined as 89.5%.
Consider `COC(=O)c1cnc(Nc2cnc(C#N)cn2)cc1NCC1CCNCC1`, for which the inhibition in assay [14] was 4%.
